From US10111433B2 (priority 2014, dated 2018)
Where two headings read alike, the source gives them in different places.

Key:
Plasmopara viticola = assay: Field activity against Plasmopara viticola on grapevine; assay type: in vivo; settings: Table B2; A-1.2 22.5 gai/ha; bunches, ten days after sixth application
Description: Merlot grapevines were cultivated in rows with 1 m between plants within the row, and 2 m spaces between rows. Treatment plots were defined with an 8 m^2 vertical area. The trial consisted of three replicates of the treatment list, with the positions of each treatment plot randomised within the replicate.
Test compounds were formulated and applied to the relevant treatment plots, using a backpack sprayer with a flat fan nozzle. The first application was made when the majority of plants were at growth stage BBCH 15 and following applications at 10-14 day intervals through to growth stage BBCH 79.
The first symptoms of the target pathogen Plasmopara viticola were observed between the second and third applications. Plants outside the trial area were inoculated to increase the disease pressure, but infection processes within the trial plots were natural. […]
Ten days after the sixth application, at growth stage BBCH 79, the fruit was assessed for infection by Plasmopara viticola. 50 bunches per plot were assessed, the scores given in table B2 are percent disease control relative to untreated, based on the mean percentage of bunches showing symptoms of infection across all three replicates of a treatment.

Phytophthora infestans [1] = assay type: in vivo; settings: Table B3; A-1.2 15 gai/ha; leaf area, four days after final application
Phytophthora capsici = assay: Activity against Phytophthora capsici, growth inhibition in nutrient broth (microtiter plate); assay type: cell-based; settings: Phytophthora capsici, read-out: % disease control; for inhibition of growth at 6.25e-05 ppm: A-1.2 0.0000625 ppm; for inhibition of growth at 0.0005 ppm: A-1.2 0.0005000 ppm; for inhibition of growth at 3.9e-06 ppm: A-1.2 0.0000039 ppm; for inhibition of growth at 7.8e-06 ppm: A-1.2 0.0000078 ppm; for inhibition of growth at 1.56e-05 ppm: A-1.2 0.0000156 ppm; for inhibition of growth at 3.13e-05 ppm: A-1.2 0.0000313 ppm
Description: Conidia of the fungus from cryogenic storage are directly mixed into nutrient broth (PDB potato dextrose broth). After placing a (DMSO) solution of test compound into a microtiter plate (96-well format), the nutrient broth containing the fungal spores is added. […] Table B4 to B21 gives the mean percent control relative to untreated.

Phytophthora infestans [2] = assay type: in vivo

O=C(N[C@@H]1CCCc2ccccc21)c1cc(C2CCN(C(=O)Cn3nc(C(F)F)cc3C(F)F)CC2)ccn1 [Compound A-1.2, 1′-[2-(3,5-bis-difluoromethyl-pyrazol-1-yl)-acetyl]-1′,2′,3′,4′,5′,6′-hexahydro-[4,4′]bipyridinyl-2-carboxylic acid (R)-(1,2,3,4-tetrahydronaphthalen-1-yl)-amide]
% disease control relative to untreated (Plasmopara viticola): 87.3% | % disease control relative to untreated (Phytophthora infestans [1]): 64.8% | inhibition of growth at 6.25e-05 ppm (Phytophthora capsici; Table B4): 0% | inhibition of growth at 0.000125 ppm (Phytophthora capsici; Table B4, A-1.2 0.0001250 ppm): 32% | inhibition of growth at 0.00025 ppm (Phytophthora capsici; Table B4, A-1.2 0.0002500 ppm): 64% | inhibition of growth at 0.0005 ppm (Phytophthora capsici; Table B4): 76% | inhibition of growth at 2e-06 ppm (Phytophthora capsici; Table B5, A-1.2 0.0000020 ppm): 0% | inhibition of growth at 3.9e-06 ppm (Phytophthora capsici; Table B5): 0% | inhibition of growth at 7.8e-06 ppm (Phytophthora capsici; Table B5): 0% | inhibition of growth at 1.56e-05 ppm (Phytophthora capsici; Table B5): 0% | inhibition of growth at 3.13e-05 ppm (Phytophthora capsici; Table B5): 0% | inhibition of growth at 6.25e-05 ppm (Phytophthora capsici; Table B5): 47% | inhibition of growth at 6.25e-05 ppm (Phytophthora capsici; Table B6): 0% | inhibition of growth at 0.000125 ppm (Phytophthora capsici; Table B6, A-1.2 0.0001250 ppm): 40% | inhibition of growth at 0.00025 ppm (Phytophthora capsici; Table B6, A-1.2 0.0002500 ppm): 78% | inhibition of growth at 3.9e-06 ppm (Phytophthora capsici; Table B7): 0% | inhibition of growth at 7.8e-06 ppm (Phytophthora capsici; Table B7): 0% | inhibition of growth at 1.56e-05 ppm (Phytophthora capsici; Table B7): 0% | inhibition of growth at 3.13e-05 ppm (Phytophthora capsici; Table B7): 0% | inhibition of growth at 6.25e-05 ppm (Phytophthora capsici; Table B7): 38% | inhibition of growth at 0.000125 ppm (Phytophthora capsici; Table B7, A-1.2 0.0001250 ppm): 42% | inhibition of growth at 6.25e-05 ppm (Phytophthora capsici; Table B8): 3% | inhibition of growth at 0.000125 ppm (Phytophthora capsici; Table B8, A-1.2 0.0001250 ppm): 56% | inhibition of growth at 0.00025 ppm (Phytophthora capsici; Table B8, A-1.2 0.0002500 ppm): 69% | inhibition of growth at 6.25e-05 ppm (Phytophthora capsici; Table B9): 0% | inhibition of growth at 0.000125 ppm (Phytophthora capsici; Table B9, A-1.2 0.0001250 ppm): 47% | inhibition of growth at 6.25e-05 ppm (Phytophthora capsici; Table B10): 12% | inhibition of growth at 0.000125 ppm (Phytophthora capsici; Table B10, A-1.2 0.0001250 ppm): 62% | inhibition of growth at 6.25e-05 ppm (Phytophthora capsici; Table B11): 0% | inhibition of growth at 0.000125 ppm (Phytophthora capsici; Table B11, A-1.2 0.0001250 ppm): 55% | inhibition of growth at 0.00025 ppm (Phytophthora capsici; Table B11, A-1.2 0.0002500 ppm): 82% | inhibition of growth at 3.13e-05 ppm (Phytophthora capsici; Table B12): 0% | inhibition of growth at 6.25e-05 ppm (Phytophthora capsici; Table B12): 0% | inhibition of growth at 0.000125 ppm (Phytophthora capsici; Table B12, A-1.2 0.0001250 ppm): 57% | inhibition of growth at 0.00025 ppm (Phytophthora capsici; Table B12, A-1.2 0.0002500 ppm): 81% | inhibition of growth at 0.000125 ppm (Phytophthora capsici; Table B13, A-1.2 0.0001250 ppm): 46% | inhibition of growth at 0.00025 ppm (Phytophthora capsici; Table B13, A-1.2 0.0002500 ppm): 69% | inhibition of growth at 0.0005 ppm (Phytophthora capsici; Table B13): 84% | inhibition of growth at 1.56e-05 ppm (Phytophthora capsici; Table B14): 0% | inhibition of growth at 3.13e-05 ppm (Phytophthora capsici; Table B14): 0% | inhibition of growth at 6.25e-05 ppm (Phytophthora capsici; Table B14): 0% | inhibition of growth at 1.56e-05 ppm (Phytophthora capsici; Table B15): 0% | inhibition of growth at 3.13e-05 ppm (Phytophthora capsici; Table B15): 0% | inhibition of growth at 6.25e-05 ppm (Phytophthora capsici; Table B15): 0% | inhibition of growth at 0.000125 ppm (Phytophthora capsici; Table B15, A-1.2 0.0001250 ppm): 71% | inhibition of growth at 0.000125 ppm (Phytophthora capsici; Table B16, A-1.2 0.0001250 ppm): 54% | inhibition of growth at 6.25e-05 ppm (Phytophthora capsici; Table B17): 0% | inhibition of growth at 0.000125 ppm (Phytophthora capsici; Table B17, A-1.2 0.0001250 ppm): 67% | inhibition of growth at 0.00025 ppm (Phytophthora capsici; Table B17, A-1.2 0.0002500 ppm): 79% | inhibition of growth at 0.0005 ppm (Phytophthora capsici; Table B17): 82% | inhibition of growth at 7.8e-06 ppm (Phytophthora capsici; Table B18): 0% | inhibition of growth at 1.56e-05 ppm (Phytophthora capsici; Table B18): 0% | inhibition of growth at 3.13e-05 ppm (Phytophthora capsici; Table B18): 0% | inhibition of growth at 6.25e-05 ppm (Phytophthora capsici; Table B18): 0% | inhibition of growth at 0.000125 ppm (Phytophthora capsici; Table B18, A-1.2 0.0001250 ppm): 46% | inhibition of growth at 1.56e-05 ppm (Phytophthora capsici; Table B19): 0% | inhibition of growth at 3.13e-05 ppm (Phytophthora capsici; Table B19): 0% | inhibition of growth at 6.25e-05 ppm (Phytophthora capsici; Table B19): 0% | inhibition of growth at 0.000125 ppm (Phytophthora capsici; Table B19, A-1.2 0.0001250 ppm): 38% | inhibition of growth at 0.00025 ppm (Phytophthora capsici; Table B19, A-1.2 0.0002500 ppm): 81% | inhibition of growth at 6.25e-05 ppm (Phytophthora capsici; Table B20): 66% | inhibition of growth at 0.000125 ppm (Phytophthora capsici; Table B20, A-1.2 0.0001250 ppm): 83% | inhibition of growth at 6.3e-05 ppm (Phytophthora capsici; Table B21, A-1.2 0.000063 ppm): 0% | inhibition of growth at 0.000125 ppm (Phytophthora capsici; Table B21, A-1.2 0.000125 ppm): 69% | inhibition of growth at 0.00025 ppm (Phytophthora capsici; Table B21, A-1.2 0.000250 ppm): 78% | % disease control (Phytophthora infestans [2]; Table B1.1, A-1.2 0.02 ppm): 0% | % disease control (Phytophthora infestans [2]; Table B1.1, A-1.2 0.06 ppm): 14% | % disease control (Phytophthora infestans [2]; Table B1.2, A-1.2 0.06 ppm): 14% | % disease control (Phytophthora infestans [2]; Table B1.3, A-1.2 0.06 ppm): 14%
